Experimental data as given in PMC7793975, “Design and Optimization of Quinazoline Derivatives: New Non-nucleoside Inhibitors of Bovine Viral Diarrhea Virus” (Frontiers in Chemistry, 2020).
Like-named read-outs stand apart in the source and are kept apart here.

Legend:
[1] = tested on: BVDV type 1 NADL strain; experiment: Anti-BVDV assay (CPE reduction, MTS/PMS); format: cell-based, Bovine viral diarrhea virus; conditions: for EC50: BVDV NADL in MDBK cells, MOI 0.01, 3 days, reduces viral CPE by 50%, Inactive: <50% of inhibition of CPE at MNCC; for SI (CC50/EC50): in vitro selectivity index, MDBK cells / BVDV NADL
Procedure: (A) Cytotoxicity. […] Mock-treated cells were added as control. […] (B) Antiviral activity.
Madin-Darby bovine kidney cells (MDBK NBL-1; ATCC CCL-22) were grown in Eagle's Minimum Essential Medium (E-MEM), supplemented with 10% biotechnological fetal bovine serum (Internegocios, Argentina) (GM) at 37°C and 5% CO2. The BVDV type 1 NADL strain, cytopathic biotype (BVDV-1, ATCC VR 534), was provided by Dr. Laura Weber (INTA Castelar, Argentina).
Then, serial dilutions of the test compounds in IM were added. […] After incubation for 3 days at 37°C and 5% CO2, the culture medium was removed, cell monolayers were washed twice with PBS, and IM supplemented with MTS/PMS was added to each well. The absorbance of each well was read at 490 nm. The EC50 was defined as the concentration of compound that prevented 50% of the virus-induced CPE and was calculated by interpolation in dose–response curves.

[2] = tested on: MDBK cells; experiment: Cytotoxicity assay (MTS/PMS); conditions: MDBK cells, 3 days
Procedure: (§1) (A) Cytotoxicity. Sub-confluent MDBK cell monolayers grown in 96-well plates were treated with 2-fold serial dilutions of each compound in IM. Mock-treated cells were added as control. Cells were incubated and allowed to proliferate for 3 days at 37°C and 5% CO2. Cell viability was then determined by the MTS/PMS method. (B) Antiviral activity. Sub-confluent MDBK cell monolayers grown in 96-well plates were infected with BVDV NADL (MOI = 0.01) and treated with different concentrations of the compounds. Mock-infected cells and mock-treated infected cells were included as controls in each plate. After 3 days at 37°C and 5% CO2, cell viability was determined by the MTS/PMS method, and the percentage of the viral CPE inhibition was calculated.
(§2) MDBK cells were seeded in 96-well plates at a density of 1 × 10^4 cells per well in GM. After 24 h, the culture medium was removed, monolayers were washed twice with phosphate-buffered saline (PBS), and serial dilutions of the test compounds were made in E-MEM supplemented with donor horse serum (DHS, Gibco, IM) and added. Cultures were incubated for 3 days at 37°C, and then, cell viability was determined by the MTS/PMS method according to the manufacturer's instructions (Promega). After incubation for 3 h at 37°C and 5% CO2, the absorbance was determined at 490 nm. The 50% cytotoxic concentration (CC50) was defined as the concentration of compound that inhibited the proliferation of exponentially growing cells by 50% and was calculated by interpolation in dose–response curves.

[3] = Cytotoxicity assay (MTS/PMS); conditions: bovine
Procedure: as §1, §2

[4] = Bovine viral diarrhea virus isolates and strains, MDBK, 72 h, read-out: EC50

## c1ccc(-c2nc(NCCN3CCOCC3)c3ccccc3n2)cc1 [Compound 1, N-(2-morpholinoethyl)-2-phenylquinazolin-4-amine]
[1]; [4]
  EC50: 9.7 ± 0.5 µM
[1]
  SI (CC50/EC50): 5.8
[2]
  MNCC (maximum non-cytotoxic concentration): 10.9 ± 1.4 µM
[3]; MDBK cells
  CC50 at 3 days: 55.9 ± 8.2 µM

## c1ccc(-c2nc(NCc3cccnc3)c3ccccc3n2)cc1 [Compound 1.1]
[1]
  EC50: Inactive^f
[2]
  MNCC (maximum non-cytotoxic concentration): 12.0 ± 0.1 µM

## Cc1ccc(CNc2nc(-c3ccccc3)nc3ccccc23)cc1 [Compound 1.2]
[1]
  EC50: Inactive
[2]
  MNCC (maximum non-cytotoxic concentration): 6.0 ± 0.2 µM

## COc1ccc(Nc2nc(-c3ccccc3)nc3ccccc23)cc1 [Compound 1.3]
[1]
  EC50: Inactive
[2]
  MNCC (maximum non-cytotoxic concentration): 6.0 ± 0.2 µM

## c1ccc(CNc2nc(-c3ccccc3)nc3ccccc23)cc1 [Compound 1.4]
[1]
  EC50: Inactive
[2]
  MNCC (maximum non-cytotoxic concentration): 6.0 ± 0.3 µM

## FC(F)(F)c1cccc(CNc2nc(-c3ccccc3)nc3ccccc23)c1 [Compound 1.5]
[1]
  EC50: Inactive
[2]
  MNCC (maximum non-cytotoxic concentration): 6.0 ± 0.1 µM

## CCCCCCNc1nc(-c2ccccc2)nc2ccccc12 [Compound 1.6, N-Hexyl-2-phenylquinazolin-4-amine]
[1]
  EC50: Inactive
[2]
  MNCC (maximum non-cytotoxic concentration): 12.0 ± 0.2 µM

## CN(C)CCCNc1nc(-c2ccccc2)nc2ccccc12 [Compound 1.7, N^1,N^1-Dimethyl-N^3-(2-phenylquinazolin-4-yl)propane-1,3-diamine]
[1]; [4]
  EC50: 4.6 ± 1 µM
[1]
  SI (CC50/EC50): 12.4
[2]
  MNCC (maximum non-cytotoxic concentration): 18.6 ± 2.6 µM
[3]; MDBK cells
  CC50 at 3 days: 57 ± 0.01 µM

## CN1CCN(c2nc(-c3ccccc3)nc3ccccc23)CC1 [Compound 1.8, 4-(4-Methylpiperazin-1-yl)-2-phenylquinazoline]
[1]; [4]
  EC50: 1.4 ± 0.1 µM
[1]
  SI (CC50/EC50): 48.6
[2]
  MNCC (maximum non-cytotoxic concentration): 19.8 ± 4.0 µM
[3]; MDBK cells
  CC50 at 3 days: 68 ± 8.4 µM

## c1ccc(-c2nc(NCCN3CCCCC3)c3ccccc3n2)cc1 [Compound 1.10, 2-Phenyl-N-[2-(Piperidin-1-yl)ethyl]quinazolin-4-amine]
[1]; [4]
  EC50: 1.4 ± 0.8 µM
[1]
  SI (CC50/EC50): 14.0
[2]
  MNCC (maximum non-cytotoxic concentration): 6.4 ± 1.1 µM
[3]; MDBK cells
  CC50 at 3 days: 19.6 ± 6.3 µM

## c1ccc(CN2CCC(Nc3nc(-c4ccccc4)nc4ccccc34)CC2)cc1 [Compound 1.11, N-(1-Benzylpiperidin-4-yl)-2-phenylquinazolin-4-amine]
[1]
  EC50: Inactive
[2]
  MNCC (maximum non-cytotoxic concentration): 7.5 ± 0.1 µM
[3]; MDBK cells
  CC50 at 3 days: 22.2 ± 1.2 µM

## CC1(C)CC(Nc2nc(-c3ccccc3)nc3ccccc23)CC(C)(C)N1 [Compound 1.12, 2-Phenyl-N-(2,2,6,6-tetramethylpiperidin-4-yl)quinazolin-4-amine]
[1]; [4]
  EC50: 1.4 ± 0.3 µM
[1]
  SI (CC50/EC50): 5.3
[2]
  MNCC (maximum non-cytotoxic concentration): 3.3 ± 0.7 µM
[3]; MDBK cells
  CC50 at 3 days: 7.4 ± 0.03 µM

## [O-][n+]1ccc(CNc2nc(-c3ccccc3)nc3ccccc23)cc1 [Compound 1.13, 4-{[(2-Phenylquinazolin-4-yl)amino]methyl}pyridine 1-oxide]
[1]
  EC50: Inactive
[3]; MDBK cells
  CC50 at 3 days: > 100 µM

## CN1CCN(c2nc(-c3ccc([N+](=O)[O-])cc3)nc3ccccc23)CC1 [Compound 1.14, 4-(4-Methylpiperazin-1-yl)-2-(4-nitrophenyl)quinazoline]
[1]
  EC50: Inactive
[2]
  MNCC (maximum non-cytotoxic concentration): 8.7 ± 1.6 µM
[3]; MDBK cells
  CC50 at 3 days: 13 ± 3.4 µM

## O=[N+]([O-])c1ccc(-c2nc(NCCN3CCCCC3)c3ccccc3n2)cc1 [Compound 1.15, 2-(4-Nitrophenyl)-N-[2-(piperidin-1-yl)ethyl]quinazolin-4-amine]
[1]; [4]
  EC50: 5.8 ± 0.6 µM
[1]
  SI (CC50/EC50): 5.2
[2]
  MNCC (maximum non-cytotoxic concentration): 14.6 ± 3.1 µM
[3]; MDBK cells
  CC50 at 3 days: 30.2 ± 0.5 µM

## O=[N+]([O-])c1ccc(-c2nc(N3CCN(CCO)CC3)c3ccccc3n2)cc1 [Compound 1.16, 2-{4-[2-(4-Nitrophenyl)quinazolin-4-yl]piperazin-1-yl}ethanol]
[1]
  EC50: Inactive
[2]
  MNCC (maximum non-cytotoxic concentration): 5.9 ± 1.4 µM
[3]; MDBK cells
  CC50 at 3 days: 12 ± 2.1 µM

## OCCN1CCN(c2nc(-c3ccc(Cl)cc3Cl)nc3ccccc23)CC1 [Compound 1.17, 2-{4-[2-(2,4-Dichlorophenyl)quinazolin-4-yl]piperazin-1-yl}ethanol]
[1]
  EC50: Inactive
[2]
  MNCC (maximum non-cytotoxic concentration): 17.4 ± 3.0 µM
[3]; MDBK cells
  CC50 at 3 days: 31.5 ± 5.7 µM

## CN(C)c1ccc(-c2nc(N3CCN(CCO)CC3)c3ccccc3n2)cc1 [Compound 1.18, 2-(4-{2-[4-(N,N-Dimethylamino)phenyl]quinazolin-4-yl}piperazin-1-yl)ethanol]
[1]; [4]
  EC50: 3.5 ± 0.6 µM
[1]
  SI (CC50/EC50): 17.4
[2]
  MNCC (maximum non-cytotoxic concentration): 26.1 ± 1.2 µM
[3]; MDBK cells
  CC50 at 3 days: 61 ± 2.5 µM

## COc1ccc(-c2nc(N3CCN(C)CC3)c3ccccc3n2)cc1 [Compound 1.19, 2-(4-Methoxyphenyl)-4-(4-Methylpiperazin-1-yl)quinazoline]
[1]; [4]
  EC50: 12.8 ± 0.3 µM
[1]
  SI (CC50/EC50): 2.9
[2]
  MNCC (maximum non-cytotoxic concentration): 18.3 ± 0.3 µM
[3]; MDBK cells
  CC50 at 3 days: 37.1 ± 0.2 µM

## Cc1ccc(-c2nc(N3CCN(CCO)CC3)c3ccccc3n2)cc1 [Compound 1.20, 2-{4-[2-(p-Tolyl)quinazolin-4-yl]piperazin-1-yl}ethanol]
[1]; [4]
  EC50: 8.5 ± 3.4 µM
[1]
  SI (CC50/EC50): 6.5
[2]
  MNCC (maximum non-cytotoxic concentration): 30.5 ± 2.1 µM
[3]; MDBK cells
  CC50 at 3 days: 55.4 ± 4 µM

## Clc1ccc2c(NCCN3CCOCC3)ncnc2c1 [Compound 1.21, 7-Chloro-N-(2-Morpholinoethyl)quinazolin-4-amine]
[1]; [4]
  EC50: 2.3 ± 0.5 µM
[1]
  SI (CC50/EC50): 25.8
[2]
  MNCC (maximum non-cytotoxic concentration): 17.3 ± 5.2 µM
[3]; MDBK cells
  CC50 at 3 days: 59.3 ± 10.7 µM

## OCCN1CCN(c2ncnc3cc(Cl)ccc23)CC1 [Compound 1.22, 2-[4-(7-Chloroquinazolin-4-yl)piperazin-1-yl]ethan-1-ol]
[1]; [4]
  EC50: 25.8 ± 1.2 µM
[3]; MDBK cells
  CC50 at 3 days: > 100 µM

## Clc1ccc2c(NCCN3CCCCC3)ncnc2c1 [Compound 1.23, 7-Chloro-N-[2-(Piperidin-1-yl)ethyl]quinazolin-4-amine]
[1]; [4]
  EC50: 4.1 ± 2.2 µM
[1]
  SI (CC50/EC50): >24.4
[3]; MDBK cells
  CC50 at 3 days: > 100 µM

## CN1CCN(c2ncnc3cc(Cl)ccc23)CC1 [Compound 1.24, 7-Chloro-4-(4-Methylpiperazin-1-yl)quinazoline]
[1]; [4]
  EC50: 9.3 ± 2.1 µM
[1]
  SI (CC50/EC50): >10.8
[3]
  CC50 at 3 days: > 100 µM
